Assay: osmotic coefficient (dimensionless); mn = molality of the nth substance listed, in mol/kg
Settings: 323.15 K, Liquid, vapour pressure osmometer

COS(=O)(=O)[O-].Cn1cc[n+](C)c1 [1,3-dimethylimidazolium methylsulfate] + CC(C)O
Settings	osmotic coefficient
m1 = 0.0241	0.914
m1 = 0.0557	0.846
m1 = 0.2089	0.683
m1 = 0.3053	0.614
m1 = 0.3982	0.588
m1 = 0.6947	0.509
m1 = 0.9721	0.461
m1 = 1.274	0.442
m1 = 1.66	0.416
m1 = 2.058	0.392
m1 = 2.447	0.364
m1 = 2.827	0.343
m1 = 3.313	0.329
m1 = 3.712	0.323
m1 = 4.112	0.298

COS(=O)(=O)[O-].Cn1cc[n+](C)c1 [1,3-dimethylimidazolium methylsulfate] + CCCO
Settings	osmotic coefficient
m1 = 0.0512	0.848
m1 = 0.079	0.772
m1 = 0.0997	0.727
m1 = 0.2023	0.67
m1 = 0.2902	0.59
m1 = 0.3952	0.544
m1 = 0.488	0.526
m1 = 0.6881	0.492
m1 = 0.9815	0.454
m1 = 1.299	0.432
m1 = 1.691	0.396
m1 = 2.097	0.375
m1 = 2.545	0.36
m1 = 2.929	0.343
m1 = 3.323	0.334
m1 = 3.71	0.322

COS(=O)(=O)[O-].Cn1cc[n+](C)c1 [1,3-dimethylimidazolium methylsulfate] + CCO
Settings	osmotic coefficient
m1 = 0.0289	0.815
m1 = 0.0374	0.794
m1 = 0.0789	0.719
m1 = 0.0991	0.687
m1 = 0.1941	0.626
m1 = 0.3285	0.56
m1 = 0.4326	0.53
m1 = 0.5312	0.503
m1 = 0.6925	0.479
m1 = 0.9868	0.449
m1 = 1.284	0.424
m1 = 1.699	0.399
m1 = 2.078	0.382
m1 = 2.489	0.363
m1 = 2.937	0.345
m1 = 3.314	0.326
m1 = 3.709	0.325
m1 = 4.016	0.331

CCCCn1cc[n+](C)c1.COS(=O)(=O)[O-] [1-butyl-3-methylimidazolium methyl sulfate] + CC(C)O
Settings	osmotic coefficient
m1 = 0.0524	0.95
m1 = 0.0842	0.905
m1 = 0.1084	0.871
m1 = 0.2087	0.799
m1 = 0.3036	0.733
m1 = 0.4106	0.685
m1 = 0.4869	0.648
m1 = 0.682	0.588
m1 = 0.9823	0.523
m1 = 1.32	0.493
m1 = 1.692	0.488
m1 = 2.05	0.502
m1 = 2.446	0.48
m1 = 2.829	0.455
m1 = 3.311	0.451

CCCCn1cc[n+](C)c1.COS(=O)(=O)[O-] [1-butyl-3-methylimidazolium methyl sulfate] + CCCO
Settings	osmotic coefficient
m1 = 0.0437	0.873
m1 = 0.0547	0.829
m1 = 0.2041	0.691
m1 = 0.3571	0.639
m1 = 0.5002	0.628
m1 = 0.6627	0.628
m1 = 0.8487	0.629
m1 = 1.007	0.629
m1 = 1.28	0.628
m1 = 1.665	0.62
m1 = 2.143	0.599
m1 = 2.937	0.581

CCCCn1cc[n+](C)c1.COS(=O)(=O)[O-] [1-butyl-3-methylimidazolium methyl sulfate] + CCO
Settings	osmotic coefficient
m1 = 0.0495	0.78
m1 = 0.0783	0.716
m1 = 0.176	0.646
m1 = 0.3283	0.573
m1 = 0.3907	0.55
m1 = 0.5167	0.529
m1 = 0.6846	0.508
m1 = 0.9851	0.496
m1 = 1.318	0.499
m1 = 1.727	0.48
m1 = 2.093	0.474
m1 = 2.507	0.465
m1 = 2.914	0.448
m1 = 3.311	0.424
m1 = 3.697	0.408

— the NIST ThermoML archive (doi:10.1016/j.jct.2008.12.021)
